pIC50: −log10 of the molar value. Like-named read-outs stand apart in the source and are kept apart here.

Data set [1] concerns acute myelogenous leukemia cells (MV-4-11 cells).
Data set [2] concerns the target BRD4 (BD1+BD2) bromodomain (Homo sapiens (Human), UniProt O60885). Nature of the data set: BRD4 binding inhibition (AlphaScreen, GST-BRD4 vs tetraacetylated histone H4 peptide). In outline:
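AlphaScreen read after 30 min dark incubation at room temperature with glutathione acceptor/streptavidin donor beads (10 μg/ml each). The beads were added to compound plus 100 nM biotin-H4 (K5,8,12,16-acetyl) peptide and 100 nM GST-BRD4 BD1+BD2 in pH 7.4 HEPES/Tween/BSA/DTT buffer.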
In general terms: In Alpha technology, singlet oxygen from a donor bead excites a nearby acceptor bead.

For data set [3], the system named is acute myelogenous leukemia cells (MV-4-11 cells). Nature of the data set: Cytotoxicity to acute myelogenous leukemia cells (MV-4-11 cells), CCK-8. The settings on record: Homo sapiens, MV4-11, 72 h.
Data set [4] has as its system thymus cancer cells (Ty-82 cells). Nature of the data set: Cytotoxicity to thymus cancer cells (Ty-82 cells), WST-1. The settings on record: Homo sapiens, TY82, 72 h. For orientation: Tetrazolium assays rely on reduction of a dye to a coloured formazan, in cell work by metabolically active cells.
Protocol: The following experiment was performed to evaluate the cytotoxicity of [1,2,4]triazolo[4,3-a]quinoxaline derivative according to the present invention to thymus cancer cells (Ty-82 cells).
First, thymus cancer cells (Ty-82 cells) were distributed in a 96 well plate at the density of 2.5×10^4 cells/well. 24 hours later, the plated cells were treated with the compounds of the present invention dissolved in DMSO at the different concentrations ranging from 0.01 μM to 10 μM. 72 hours later, the activities of the compounds were determined using WST-1 reagent.
[5] abbreviates: GST-BRD4 (BD1+BD2) / biotinylated acetyl-histone H4 (Lys5,8,12,16) peptide, read-out: IC50, BRD4 binding inhibition.
Setting [6] is: GST-BRD4 (BD1+BD2) vs biotinylated acetyl-histone H4 peptide, AlphaScreen, read-out: BRD4 IC50.
The mark [7] stands for this setting: read-out: IC50, cytotoxicity against acute myelogenous leukemia cells.
[8] abbreviates: read-out: MV-4-11 Cytotoxicity IC50.
[9] abbreviates: read-out: IC50, cytotoxicity against thymus cancer cells.
Where [10] appears, read: read-out: Ty-82 Cytotoxicity IC50.

For orientation: pIC50 means the negative decadic logarithm of the IC50, by convention in mol/L. For `COc1ccc2nc(NCCCCNC(=O)CC(C)(C)C)c3nnc(C)n3c2c1` [Example 124, [4-(8-methoxy-1-methyl-[1,2,4]triazolo[4,3-a]quinoxaline-4-ylamino)-butyl]-3,3-dimethyl-butyramide], the pIC50 in data set [1] is 6.15; in data set [2] (setting [5]), at least 7.30; in data set [2] (setting [6]) it was 7.54.
For the compound `COc1ccc2c(c1)nc(NCCCCNC(=O)OC(C)C)c1nnc(C)n12` [Example 278, [4-(7-methoxy-1-methyl-[1,2,4]triazolo[4,3-a]quinoxaline-4-ylamino)-butyl]-carbamic acid isopropylester], the pIC50 in data set [3] (setting [7]) was at least 6.70; in data set [3] (setting [8]), 6.80; in data set [4] (setting [9]), at least 6.30; in data set [4] (setting [10]), 6.74; in data set [2] (setting [6]), 7.29.
For `COc1ccc2c(c1)nc(NCCCCNC(=O)OCC(C)C)c1nnc(C)n12` [Example 279, [4-(7-methoxy-1-methyl-[1,2,4]triazolo[4,3-a]quinoxaline-4-ylamino)-butyl]-carbamic acid isobutylester], the pIC50 was at least 6.70 in data set [3] (setting [7]); 6.85 in data set [3] (setting [8]); at least 6.30 in data set [4] (setting [9]); 6.92 in data set [4] (setting [10]); at least 7.30 in data set [2] (setting [5]); 7.74 in data set [2] (setting [6]).
For `COc1ccc2c(c1)nc(NCCCCNC(=O)CC(C)C)c1nnc(C)n12` [Example 285, N-[4-(7-methoxy-1-methyl-[1,2,4]triazolo[4,3-a]quinoxaline-4-ylamino)-butyl]-3-methyl-butyramide], the negative logarithm of the IC50 (pIC50) is at least 6.70 in data set [3] (setting [7]); 8.00 in data set [3] (setting [8]); at least 6.30 in data set [4] (setting [9]); 7.04 in data set [4] (setting [10]); at least 7.30 in data set [2] (setting [5]); 7.77 in data set [2] (setting [6]).
Consider `COc1cc2nc(NCCCCNC(=O)OC(C)C)c3nnc(C)n3c2cc1C` [Example 467, [4-(7-methoxy-1,8-dimethyl-[1,2,4]triazolo[4,3-a]quinoxaline-4-ylamino)-butyl]-carbamic acid isopropylester], for which the pIC50 is at least 6.70 in data set [3] (setting [7]); 7.18 in data set [3] (setting [8]); at least 6.30 in data set [4] (setting [9]); 6.70 in data set [4] (setting [10]); at least 7.30 in data set [2] (setting [5]); 7.64 in data set [2] (setting [6]).
With `COc1cc2nc(NCCCCNC(=O)OCC(C)C)c3nnc(C)n3c2cc1C` [Example 468, [4-(7-methoxy-1,8-dimethyl-[1,2,4]triazolo[4,3-a]quinoxaline-4-ylamino)-butyl]-carbamic acid isobutylester], the pIC50 in data set [3] (setting [7]) was at least 6.70; in data set [3] (setting [8]) it was 7.14; in data set [4] (setting [9]) it was at least 6.30; in data set [4] (setting [10]), 6.64; in data set [2] (setting [5]), at least 7.30; in data set [2] (setting [6]), 7.66.
`COc1cc2nc(NCCCCNC(=O)CC(C)C)c3nnc(C)n3c2cc1C` [Example 469, N-[4-(7-methoxy-1,8-dimethyl-[1,2,4]triazolo[4,3-a]quinoxaline-4-ylamino)-butyl]-3-methyl-butyramide]: the pIC50 in data set [3] (setting [7]) was at least 6.70; in data set [3] (setting [8]), 8.00; in data set [4] (setting [9]) it was at least 6.30; in data set [4] (setting [10]) it was 7.03; in data set [2] (setting [6]), 7.26.
In the case of `Cc1nnc2c(NCCCCNC(=O)[C@@H](O)C(C)C)nc3cc(N4CCSCC4)ccc3n12` [Example 525, N-[4-(7-thiomorphonyl-4-yl-1-methyl-[1,2,4]triazolo[4,3-a]quinoxaline-4-ylamino)-butyl]-2-(S)-hydroxy-3-methyl-butyramide], the pIC50 in data set [1] was 6.70; in data set [2] (setting [5]) it was at least 7.30; in data set [2] (setting [6]) it was 7.96.
In the same order, the values of `CCc1nnc2c(NCCCCNC(=O)CC(C)C)nc3cc(OC)ccc3n12` [Example 622, [4-(7-methoxy-1-ethyl-[1,2,4]triazolo[4,3-a]quinoxaline-4-ylamino)-butyl]-3-methyl-butyramide] are 6.54, at least 7.30 and 7.70.
As for `Cc1nnc2c(NCCCCOC(=O)CC(C)(C)C)nc3ccccc3n12` [Example 633], the pIC50 in data set [3] (setting [8]) was 6.12; in data set [4] (setting [10]), 6.05; in data set [2] (setting [5]) it was at least 7.30; in data set [2] (setting [6]), 7.62.

Values taken from patent publication US11028090B2 (Dong Wha Pharm. Co., Ltd., priority 2017, dated 2021).
